Data from ChEMBL document CHEMBL1201862, “PubChem BioAssay data set” (2004).
The source made the active and inactive calls.

Assays:
Type in all cases: functional
[1] = target: Tyrosine-protein kinase receptor TYRO3 (Homo sapiens, UniProt Q06418);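 further: TYRO3 value obtained as one member of a kinome-wide profiling panel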
[2] = target: High affinity nerve growth factor receptor (Homo sapiens, UniProt P04629);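 further: NTRK1 tested as one member of a kinome-wide profiling panel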
[3] = target: BDNF/NT-3 growth factors receptor (Homo sapiens, UniProt Q16620);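 further: NTRK2 measured as one member of a broad kinome-wide kinase profiling panel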
Sequence of BDNF/NT-3 growth factors receptor (Q16620 whole entry): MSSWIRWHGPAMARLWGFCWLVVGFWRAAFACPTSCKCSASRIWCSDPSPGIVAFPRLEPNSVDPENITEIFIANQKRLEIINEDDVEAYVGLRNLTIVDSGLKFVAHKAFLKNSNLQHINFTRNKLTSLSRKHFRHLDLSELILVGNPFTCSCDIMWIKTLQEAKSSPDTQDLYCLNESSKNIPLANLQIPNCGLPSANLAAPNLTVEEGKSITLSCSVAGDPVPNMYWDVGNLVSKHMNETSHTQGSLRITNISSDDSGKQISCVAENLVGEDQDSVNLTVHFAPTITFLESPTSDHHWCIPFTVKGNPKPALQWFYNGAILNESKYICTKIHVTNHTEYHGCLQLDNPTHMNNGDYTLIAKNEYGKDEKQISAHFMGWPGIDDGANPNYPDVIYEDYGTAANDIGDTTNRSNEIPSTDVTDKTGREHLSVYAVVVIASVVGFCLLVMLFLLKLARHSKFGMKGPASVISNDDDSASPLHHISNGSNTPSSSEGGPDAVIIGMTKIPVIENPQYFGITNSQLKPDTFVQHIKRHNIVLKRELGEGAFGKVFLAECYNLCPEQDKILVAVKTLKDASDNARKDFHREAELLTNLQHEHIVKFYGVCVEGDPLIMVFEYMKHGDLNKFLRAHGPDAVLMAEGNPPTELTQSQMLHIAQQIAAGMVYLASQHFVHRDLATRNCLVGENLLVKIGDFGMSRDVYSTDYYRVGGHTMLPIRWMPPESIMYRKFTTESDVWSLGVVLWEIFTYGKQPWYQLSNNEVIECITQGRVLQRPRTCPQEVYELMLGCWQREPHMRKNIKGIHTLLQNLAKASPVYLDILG

[4] = target: Dual specificity protein kinase CLK4 (Homo sapiens, UniProt Q9HAZ1)
Sequence of Dual specificity protein kinase CLK4 (Q9HAZ1 whole entry): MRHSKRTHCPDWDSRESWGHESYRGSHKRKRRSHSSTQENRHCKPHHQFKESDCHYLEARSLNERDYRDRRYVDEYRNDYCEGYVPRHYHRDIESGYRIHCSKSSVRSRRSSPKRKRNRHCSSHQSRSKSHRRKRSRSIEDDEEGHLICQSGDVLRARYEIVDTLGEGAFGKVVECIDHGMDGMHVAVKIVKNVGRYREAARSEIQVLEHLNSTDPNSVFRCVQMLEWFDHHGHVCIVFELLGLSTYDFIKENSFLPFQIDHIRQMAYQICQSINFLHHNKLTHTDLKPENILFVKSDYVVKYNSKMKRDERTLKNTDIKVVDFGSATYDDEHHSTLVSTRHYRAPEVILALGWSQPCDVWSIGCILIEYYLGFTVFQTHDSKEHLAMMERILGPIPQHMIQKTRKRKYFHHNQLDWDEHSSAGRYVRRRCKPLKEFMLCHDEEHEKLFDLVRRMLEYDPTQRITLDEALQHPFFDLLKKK

[5] = target: Leukocyte tyrosine kinase receptor (Homo sapiens, UniProt P29376); test: Navigating the Kinome. Panel member name: LTK
[6] = target: Protein kinase C theta type (Homo sapiens, UniProt Q04759); test: Navigating the Kinome. Panel member name: PRKCQ
Sequence of Protein kinase C theta type (Q04759 whole entry): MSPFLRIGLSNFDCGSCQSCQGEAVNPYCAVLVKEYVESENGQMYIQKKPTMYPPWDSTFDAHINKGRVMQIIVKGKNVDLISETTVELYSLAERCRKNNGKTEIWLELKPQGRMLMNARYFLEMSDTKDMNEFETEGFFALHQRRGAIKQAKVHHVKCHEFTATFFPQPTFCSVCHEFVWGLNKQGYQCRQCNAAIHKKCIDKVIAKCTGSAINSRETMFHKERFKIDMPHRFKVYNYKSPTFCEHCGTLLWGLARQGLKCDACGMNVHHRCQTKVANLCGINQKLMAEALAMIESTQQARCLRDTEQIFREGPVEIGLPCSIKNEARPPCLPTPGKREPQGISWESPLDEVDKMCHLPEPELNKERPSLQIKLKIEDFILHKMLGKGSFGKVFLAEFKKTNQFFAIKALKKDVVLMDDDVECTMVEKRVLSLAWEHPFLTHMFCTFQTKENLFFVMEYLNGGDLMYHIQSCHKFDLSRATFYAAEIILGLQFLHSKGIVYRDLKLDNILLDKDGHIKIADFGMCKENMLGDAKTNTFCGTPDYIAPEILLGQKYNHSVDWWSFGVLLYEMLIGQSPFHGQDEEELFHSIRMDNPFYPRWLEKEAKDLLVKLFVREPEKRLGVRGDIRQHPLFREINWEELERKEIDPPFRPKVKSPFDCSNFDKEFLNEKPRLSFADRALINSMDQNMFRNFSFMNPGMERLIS

[7] = target: Death-associated protein kinase 3 (Homo sapiens, UniProt O43293);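 further: measured as one member of a kinome-wide profiling panel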
Sequence of Death-associated protein kinase 3 (O43293 whole entry): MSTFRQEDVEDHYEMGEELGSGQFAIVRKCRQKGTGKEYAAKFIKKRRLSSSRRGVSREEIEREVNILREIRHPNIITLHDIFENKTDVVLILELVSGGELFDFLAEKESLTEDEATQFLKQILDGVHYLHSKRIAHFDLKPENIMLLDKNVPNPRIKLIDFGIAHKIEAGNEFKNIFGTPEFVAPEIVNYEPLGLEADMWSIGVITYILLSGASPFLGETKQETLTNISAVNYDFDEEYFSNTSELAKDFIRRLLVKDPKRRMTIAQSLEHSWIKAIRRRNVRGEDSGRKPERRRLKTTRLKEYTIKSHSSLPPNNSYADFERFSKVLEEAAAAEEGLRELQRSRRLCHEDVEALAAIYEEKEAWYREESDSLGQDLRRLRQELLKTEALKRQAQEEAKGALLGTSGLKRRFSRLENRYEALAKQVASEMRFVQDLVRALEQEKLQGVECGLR

Aurora kinase A = Aurora kinase A (Homo sapiens, UniProt O14965);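 further: value from the Navigating the Kinome kinase panel profiling, panel entry STK6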
[8] = target: Casein kinase I isoform alpha (Homo sapiens, UniProt P48729)
Sequence of Casein kinase I isoform alpha (P48729 whole entry, the tested form may be a part, canonical isoform): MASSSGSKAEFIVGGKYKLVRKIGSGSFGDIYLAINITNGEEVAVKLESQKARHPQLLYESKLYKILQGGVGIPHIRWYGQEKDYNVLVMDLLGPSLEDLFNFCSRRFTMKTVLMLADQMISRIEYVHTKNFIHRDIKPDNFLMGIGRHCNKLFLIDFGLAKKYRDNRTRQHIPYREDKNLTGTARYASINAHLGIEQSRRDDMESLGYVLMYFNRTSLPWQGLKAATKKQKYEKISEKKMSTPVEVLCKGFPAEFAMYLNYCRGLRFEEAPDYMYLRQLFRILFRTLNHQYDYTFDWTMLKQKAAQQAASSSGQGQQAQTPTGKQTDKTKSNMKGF

LIM domain kinase 1 = LIM domain kinase 1 (Homo sapiens, UniProt P53667); test: Navigating the Kinome. Panel member name: LIMK1
[9] = target: Serine/threonine-protein kinase TAO1 (Homo sapiens, UniProt Q7L7X3)
Sequence of Serine/threonine-protein kinase TAO1 (Q7L7X3 whole entry): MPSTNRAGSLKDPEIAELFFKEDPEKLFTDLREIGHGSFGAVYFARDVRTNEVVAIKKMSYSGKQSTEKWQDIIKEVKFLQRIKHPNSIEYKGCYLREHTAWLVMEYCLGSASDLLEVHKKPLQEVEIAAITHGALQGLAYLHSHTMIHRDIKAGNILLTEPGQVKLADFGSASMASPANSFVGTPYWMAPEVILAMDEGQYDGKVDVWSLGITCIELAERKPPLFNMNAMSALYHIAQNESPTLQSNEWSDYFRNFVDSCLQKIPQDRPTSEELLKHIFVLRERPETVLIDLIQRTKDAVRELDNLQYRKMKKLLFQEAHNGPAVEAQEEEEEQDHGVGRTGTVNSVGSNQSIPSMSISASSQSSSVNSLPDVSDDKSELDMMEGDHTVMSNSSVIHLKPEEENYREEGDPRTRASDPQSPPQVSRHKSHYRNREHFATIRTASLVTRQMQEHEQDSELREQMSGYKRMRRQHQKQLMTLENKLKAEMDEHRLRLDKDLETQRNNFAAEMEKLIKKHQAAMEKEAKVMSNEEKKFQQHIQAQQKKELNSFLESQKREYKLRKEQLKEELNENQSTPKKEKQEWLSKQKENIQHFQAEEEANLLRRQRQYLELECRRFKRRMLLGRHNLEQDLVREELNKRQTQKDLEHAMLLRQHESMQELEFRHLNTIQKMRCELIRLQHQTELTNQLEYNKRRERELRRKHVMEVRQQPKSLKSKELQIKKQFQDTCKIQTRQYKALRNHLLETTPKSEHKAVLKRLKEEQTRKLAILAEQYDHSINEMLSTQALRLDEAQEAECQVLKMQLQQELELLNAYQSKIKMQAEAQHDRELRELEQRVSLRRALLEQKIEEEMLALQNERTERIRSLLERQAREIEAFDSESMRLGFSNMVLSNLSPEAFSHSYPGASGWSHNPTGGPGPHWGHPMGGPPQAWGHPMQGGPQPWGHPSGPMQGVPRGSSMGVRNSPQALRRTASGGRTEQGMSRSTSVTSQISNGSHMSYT

[10] = target: Glycogen synthase kinase-3 alpha (Homo sapiens, UniProt P49840);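 further: GSK3A result taken from a broad kinome-wide kinase panel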
[11] = target: Platelet-derived growth factor receptor beta (Homo sapiens, UniProt P09619);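 further: value comes from a kinome panel, with PDGFRB tested as one panel member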
[12] = target: Serine/threonine-protein kinase Chk1 (Homo sapiens, UniProt O14757);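 further: measured as one member of a kinome-wide kinase profiling panel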
Sequence of Serine/threonine-protein kinase Chk1 (O14757 whole entry): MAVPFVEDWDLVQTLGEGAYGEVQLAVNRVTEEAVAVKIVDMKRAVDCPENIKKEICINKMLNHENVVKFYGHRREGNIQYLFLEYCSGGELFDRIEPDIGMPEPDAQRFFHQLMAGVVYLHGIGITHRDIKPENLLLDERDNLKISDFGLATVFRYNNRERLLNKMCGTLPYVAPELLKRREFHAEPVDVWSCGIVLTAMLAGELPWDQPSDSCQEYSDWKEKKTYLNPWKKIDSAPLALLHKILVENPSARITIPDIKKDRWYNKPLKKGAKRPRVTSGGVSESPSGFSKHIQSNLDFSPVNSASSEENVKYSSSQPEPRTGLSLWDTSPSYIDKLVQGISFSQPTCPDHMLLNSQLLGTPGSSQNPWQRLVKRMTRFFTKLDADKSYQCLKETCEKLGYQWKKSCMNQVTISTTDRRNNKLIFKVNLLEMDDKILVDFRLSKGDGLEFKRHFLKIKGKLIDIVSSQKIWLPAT

[13] = target: Vascular endothelial growth factor receptor 2 (Homo sapiens, UniProt P35968)
[14] = target: Dual specificity tyrosine-phosphorylation-regulated kinase 1B (Homo sapiens, UniProt Q9Y463); test: Navigating the Kinome. Panel member name: DYRK1B
Sequence of Dual specificity tyrosine-phosphorylation-regulated kinase 1B (Q9Y463 whole entry): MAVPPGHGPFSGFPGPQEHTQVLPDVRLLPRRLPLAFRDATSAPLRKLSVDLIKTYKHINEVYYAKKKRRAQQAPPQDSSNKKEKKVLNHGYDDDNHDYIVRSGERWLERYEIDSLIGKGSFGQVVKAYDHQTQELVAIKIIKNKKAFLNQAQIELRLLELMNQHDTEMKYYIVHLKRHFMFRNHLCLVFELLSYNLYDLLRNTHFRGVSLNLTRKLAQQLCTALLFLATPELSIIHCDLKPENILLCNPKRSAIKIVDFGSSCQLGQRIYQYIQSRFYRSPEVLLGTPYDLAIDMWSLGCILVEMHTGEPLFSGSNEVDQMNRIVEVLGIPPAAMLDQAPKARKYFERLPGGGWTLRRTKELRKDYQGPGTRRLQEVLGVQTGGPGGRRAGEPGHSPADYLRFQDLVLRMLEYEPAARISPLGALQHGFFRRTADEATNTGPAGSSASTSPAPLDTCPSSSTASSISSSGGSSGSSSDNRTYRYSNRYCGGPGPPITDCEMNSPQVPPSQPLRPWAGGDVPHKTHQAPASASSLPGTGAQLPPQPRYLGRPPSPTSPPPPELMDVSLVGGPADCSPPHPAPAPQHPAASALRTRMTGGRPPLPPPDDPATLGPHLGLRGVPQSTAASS

[15] = target: Cyclin-dependent kinase 9 (Homo sapiens, UniProt P50750);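 further: value from the CDK9 entry of a kinome-spanning kinase panel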
[16] = target: cAMP-dependent protein kinase catalytic subunit alpha (Homo sapiens, UniProt P17612)
[17] = target: Macrophage colony-stimulating factor 1 receptor (Homo sapiens, UniProt P07333);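 further: value comes from the Navigating the Kinome screening panel, CSF1R member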
[18] = target: Dual specificity tyrosine-phosphorylation-regulated kinase 1A (Homo sapiens, UniProt Q13627);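 further: measured against DYRK1A as one member of a broad kinome profiling panel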
[19] = target: Inhibitor of nuclear factor kappa-B kinase subunit epsilon (Homo sapiens, UniProt Q14164); test: Navigating the Kinome. Panel member name: IKBKE

Measured: Ki

Cn1c(N)nc2sccc21
active: [1] 79.4 µM | [2] 50.1 µM | [3] 63.1 µM | [4] 20 µM | [5] 79.4 µM

CC(=O)n1ncc2cc(N)ccc21
inactive: [6] > 100 µM | [11] > 79.4 µM | [13] > 100 µM | [15] > 63.1 µM | [16] > 50.1 µM | [17] > 100 µM | [18] > 79.4 µM
active: [7] 5.01 µM | Aurora kinase A 63.1 µM | [8] 20 µM | LIM domain kinase 1 3.16 µM | [9] 6.31 µM | [10] 25.1 µM | [12] 2 µM | [14] 0.631 µM | [4] 0.2 µM | [19] 79.4 µM
